Results reported in patent US20170074857A1, “MEDICATION ADHERENCE MONITORING DEVICE” (UNIVERSITY OF FLORIDA RESEARCH FOUNDATION, INC., priority 2014, published 2017).

Assay: Example 4a: noncompartmental pharmacokinetics of exhaled 2-butanone and 2-pentanone by mGC;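 as to TThresh: time until breath level first exceeds the mGC detection limit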
Assay type: in vivo, human
Excerpt: Test Materials. […] 2-butanol was purchased from Penta Manufacturing Company (Fairfield, N.J.). 2-pentanol and L-carvone were purchased from Sigma-Aldrich (St. Louis, Mo.). […] 2-pentanone was also used as a taggant, but we hypothesized that its inherent volatility would allow exhalation without need for metabolism. L-carvone tastes like spearmint and was used as a flavor mask. All capsules were filled on the day of the experiment.
Subject Enrollment and Protocol. This protocol (20100140) was approved by the Western Institutional Review Board (Olympia, Wash.). Healthy subjects (n=5) aged >18 years of age and of either sex were recruited. Informed, written consent was obtained from all enrolled subjects. The study consisted of a single experimental limb with six replicates per subject. Therefore, for five subjects with six replicated experiments, a total of 30 studies were performed. Subjects were free to eat ad lib prior to participation in the study. At commencement of the experiments, subjects provided a baseline breath sample (designated time 0 min) into the mGC for analysis as described subsequently. Then, subjects orally consumed the previously detailed capsule with 177 mL (6 ounces) of water. Following ingestion, we observed the breath concentration-time relationships of 2-butanone and 2-pentanone by collecting single-breath samples at times 5, 10, 15, 20, 30, 45, and 60 min. After 60 min, the experiment was concluded. After at least one day's respite, subjects returned for replicate experiments on five additional occasions.
2-Butanone and 2-Pentanone Measurement in Human Breath by mGC. Breath specimens were analyzed “real-time” to measure the concentrations of 2-butanone and 2-pentanone using the mGC (Xhale, Inc. Gainesville, Fla.) as previously described. In brief, a mouthpiece (FST®, Intoximeters, Inc., St. Louis, Mo.) was attached to the inlet of the mGC. A 15 mL side-stream sample was aspirated during a single exhalation over 5 s through this inlet port to a room temperature concentrator trap containing 4 mg of Tenax TA (Sigma-Aldrich). The trap temperature was then increased to 130° C. and the volatile components transferred to a 5 m by 0.53 mm internal diameter, metal clad, BAC-1 capillary column (Restek Corp, Bellefonte, Pa.) operated at 55° C. The effluent from the column then flowed to the metal oxide detectors. Separation of the markers from other volatile organic compounds present in the sample (i.e., acetone and isoprene) occurred in approximately 2 min. Data were tabulated and graphically presented over time to determine the concentrations of 2-butanone and 2-pentanone in a given breath specimen. Data are reported in parts-per-billion (ppb) based on molar fractions to account for differing ambient atmospheric pressures and temperature.
Pharmacokinetic Analysis. Analyte breath concentrations reported as ppb were converted to ng/mL by multiplying each concentration by the molecular weight of the respective molecule to allow proper functioning of conventional PK software for noncompartmental analysis (WinNonlin 5.2, Pharsight Corporation, St. Louis, Mo.). Estimates were generated for the following PK parameters (abbreviation, unit): first-order elimination rate constant (Lambda Z, min-1), half-life of elimination (Half-life, min), maximal drug concentration (CMAX, μg/mL), time at maximal drug concentration (TMAX, min), area under concentration versus time curve from zero to the last time point (AUC0-LAST, min*μg/mL), area under concentration versus time curve from zero to infinity (AUC0-∞, min*μg/mL), percentage of area under concentration versus time curve from zero to infinity, which is extrapolated from AUC0-t (% AUC Extrap) and the mean residence time (MRT, min). The area under concentration versus time curve (AUC) was calculated using the linear trapezoidal rule. All values are reported separately for each subject as mean±standard deviation following conversion from ng/mL to ppb. […]

## CCC(C)=O [Formulation 2-butanone, 2-butanone]
30 observations
  % AUC Extrap: 17.9%
  AUC0-8: 51190 min · ppb
  AUC0-LAST: 41820 min · ppb
  CMAX: 1376 ppb
  Half-life: 216 min
  LAMBDA_Z: 0.036 min⁻¹
  MRT0-last: 25.7 min
  TMAX: 17.8 min
REPLICATE 1
  % AUC Extrap: 41.3%
  AUC0-LAST: 53278 min · ppb
  AUC0-∞: 64618 min · ppb
  CMAX: 1793 ppb
  Half-life: 21.1 min
  LAMBDA_Z: 0.036 min⁻¹
  MRT0-last: 24.4 min
  TMAX: 15.0 min
REPLICATE 1, same 5 subjects
  TThresh: 5.0 min
REPLICATE 2
  % AUC Extrap: 47.3%
  AUC0-LAST: 44693 min · ppb
  AUC0-∞: 58070 min · ppb
  CMAX: 1361 ppb
  Half-life: 24.1 min
  LAMBDA_Z: 0.033 min⁻¹
  MRT0-last: 28.3 min
  TMAX: 21.0 min
  TThresh: 7.0 min
REPLICATE 3
  % AUC Extrap: 31.3%
  AUC0-LAST: 36508 min · ppb
  AUC0-∞: 42226 min · ppb
  CMAX: 1175 ppb
  Half-life: 16.4 min
  LAMBDA_Z: 0.048 min⁻¹
  MRT0-last: 24.8 min
  TMAX: 17.0 min
  TThresh: 6.0 min
REPLICATE 4
  % AUC Extrap: 37.3%
  AUC0-LAST: 44467 min · ppb
  AUC0-∞: 52141 min · ppb
  CMAX: 1449 ppb
  Half-life: 21.2 min
  LAMBDA_Z: 0.038 min⁻¹
  MRT0-last: 23.9 min
  TMAX: 19.0 min
  TThresh: 6.0 min
REPLICATE 5
  % AUC Extrap: 54.6%
  AUC0-LAST: 37792 min · ppb
  AUC0-∞: 491783 min · ppb
  CMAX: 1227 ppb
  Half-life: 27.7 min
  LAMBDA_Z: 0.026 min⁻¹
  MRT0-last: 26.6 min
  TMAX: 15.0 min
  TThresh: 7.0 min
REPLICATE 6
  % AUC Extrap: 39.2%
  AUC0-LAST: 34184 min · ppb
  AUC0-∞: 40905 min · ppb
  CMAX: 1251 ppb
  Half-life: 18.9 min
  LAMBDA_Z: 0.037 min⁻¹
  MRT0-last: 26.5 min
  TMAX: 20.0 min
  TThresh: 6.0 min
SUBJECT 1
  % AUC Extrap: 22.6%
  AUC0-LAST: 45298 min · ppb
  AUC0-∞: 59106 min · ppb
  CMAX: 1297 ppb
  Half-life: 22.6 min
  LAMBDA_Z: 0.033 min⁻¹
  MRT0-last: 29.3 min
  TMAX: 21.7 min
SUBJECT 1, six replicates
  TThresh: 6.7 min
SUBJECT 2
  % AUC Extrap: 19.2%
  AUC0-LAST: 66466 min · ppb
  AUC0-∞: 82628 min · ppb
  CMAX: 1926 ppb
  Half-life: 20.6 min
  LAMBDA_Z: 0.034 min⁻¹
  MRT0-last: 27.7 min
  TMAX: 20.8 min
  TThresh: 5.0 min
SUBJECT 3
  % AUC Extrap: 23.2%
  AUC0-LAST: 19608 min · ppb
  AUC0-∞: 25623 min · ppb
  CMAX: 1021 ppb
  Half-life: 30.7 min
  LAMBDA_Z: 0.024 min⁻¹
  MRT0-last: 22.7 min
  TMAX: 11.7 min
  TThresh: 5.8 min
SUBJECT 4
  % AUC Extrap: 12.6%
  AUC0-LAST: 68147 min · ppb
  AUC0-∞: 77593 min · ppb
  CMAX: 2238 ppb
  Half-life: 16.4 min
  LAMBDA_Z: 0.043 min⁻¹
  MRT0-last: 26.2 min
  TMAX: 18.3 min
  TThresh: 5.8 min
SUBJECT 5
  % AUC Extrap: 12.0%
  AUC0-LAST: 9581 min · ppb
  AUC0-∞: 10999 min · ppb
  CMAX: 398 ppb
  Half-life: 17.5 min
  LAMBDA_Z: 0.046 min⁻¹
  MRT0-last: 22.9 min
  TMAX: 16.7 min
  TThresh: 7.5 min
Across subjects
  observed CMAX range: 398-2,238 ppb
After oral 2-butanol (40 and 60 mg) to humans
  half life in breath: 11 to 22 min
Mean of 30 observations (5 subjects, 6 replicates), oral 2-butanol 60 mg + 2-pentanone 60 mg
  TThresh: 6.2 min
